In patent US20130137573A1, “HERBICIDAL COMPOSITIONS COMPRISING, AND METHODS OF USE OF, HERBICIDALLY ACTIVE PYRANDIONES” (priority 2009, published 2013):

Key:
Type in all cases: in vivo
[1] = tested on: Echinochloa crus-galli (ECHCG); assay: Biological Example 2 (Test 109): visual herbicidal damage to flooded ECHCG; conditions: EC050, into flood water, 14 days after application
Protocol: (§1) Rice seeds, variety IR-64, were sown in seed trays, after 7 days they were transplanted as 3 groups of 2 plants, into pots containing a standard sandy loam soil saturated with water replicating swampy conditions. These were grown on for 9 days in a glasshouse bay (30/20° C. day/night; 18/6 hours light/dark; 75% humidity). Approx 10-20 seeds of Echinochloa crus-galli were sown into pots 13 days prior to application, in the same conditions as the rice. All pots were flooded to 2-3 cm water depth the day prior to application. Growth stages at time of application were: Rice: 2-3 leaves, ECHCG: 2-3 leaves.
(§2) The test solutions were prepared by mixing the appropriate aliquots of the test substance (here, compound A-13 as the EC050 Formulation Example 1 disclosed herein) in de-ionised water to give the desired treatment concentration.
(§3) Application was made by pipetting the required amount of the test solution gently into the flood water of the appropriate pot.
(§4) The test plants were grown on in the same glasshouse conditions, and watered twice daily keeping the flood water at a depth of 2-3 cm.
(§5) A visual assessment of the % herbicidal damage was made 14 days after application (0=no damage to plants, 100=total kill).

IR-64 rice [2] = assay: Biological Example 1 (Test 125): damage (phytotoxicity) to flooded transplanted rice; conditions: alone or in tested mixtures; A-4 mixtures especially at higher application rates of compound A-4
From the text: Rice seeds, variety IR-64 (an indica type of rice), were sown in seed trays. After 7 days the resulting plants were transplanted as 3 groups of 2 plants, into pots containing a standard sandy loam soil saturated with water replicating swampy conditions. […] Leptochloa chinensis (LEFCH) and Echinochloa crus-galli (ECHCG) were sown as 2 separate groups of approx 10-20 seeds into pots 13 days prior to application of the test substances, in the same glasshouse conditions as the rice. Therefore, each pot of weeds contained a group of LEFCH and a separate group of ECHCG. All pots of rice and all pots of weeds were flooded to 2-3 cm water depth the day prior to application of the test substances. Growth stages at time of application were as follows: Rice: from 2 leaves on the main stem up to tillering; ECHCG: from 2 leaves on the main stem up to tillering; LEFCH: 2-3 leaves.
Most of the test substances were used as formulated products. […] Imazosulfuron (a comparator co-herbicide) was applied as a GR0.25 formulation (GR=granule).
Application of the test substances was made by pipetting the required amount of the test solution or the test formulation gently into the flood water of the appropriate pot.
The test plants were then grown on in the same glasshouse conditions, and watered twice daily keeping the flood water at a depth of 2-3 cm. […]

Koshihikari rice [3] = assay: Biological Example 3 (Test 120): damage to flooded transplanted rice; conditions: for Koshihikari rice % herbicidal damage, Mean of 2 repetitions / Koshihikari rice % herbicidal damage, Repetition A / Koshihikari rice % herbicidal damage, Repetition B / rice phytotoxicity (span of the 2 repetitions): EC050, 14DAA; for rice phytotoxicity (span of the 2 repetitions): Koshihikari
Protocol: as §1, with “Koshihikari,” for “IR-64,”, “clay” for “sandy loam”, “leaves;” for “leaves,”
as §2, §3, §4, §5

[4] = tested on: Echinochloa crus-galli (ECHCG); assay: Biological Example 4 (Test 110): transplanted (TPR) method, ECHCG damage; conditions: EC050 into flood water, ECHCG 4 leaves, 14 days after application
Protocol: as §1, with “variety Koshihikari,” for “variety IR-64,”, “bay 30/20°” for “bay (30/20°”, “ECHCG: 4” for “ECHCG: 2-3”, “leaves. The test solutions were prepared by mixing the appropriate aliquots of the test substance (here, compound A-13 as EC050 Formulation Example 1) in de-ionised water to give the desired treatment concentration.” for “leaves.”
as §3, §4
(§6) No. of repetitions: 1 test only.
as §5

[5] = tested on: Echinochloa colona (ECHCO); assay: Biological Example 4 (Test 110): dry seeded rice (DSR) method, ECHCO damage; conditions: for DSR ECHCO 0.5lf % herbicidal damage / DSR ECHCO 3lf % herbicidal damage: EC050 + 0.2% Adsee, foliar spray, 14 days after application; for DSR ECHCO 0.5lf % herbicidal damage: 0.5 leaf stage; for DSR ECHCO 3lf % herbicidal damage: 3 leaf stage
Protocol: Echinochloa colona (ECHCO) seeds were sown in seed trays containing a standard sandy loam soil. They were sown at intervals to achieve plants at 0-0.5 leaf and 2-3 leaves at the time of application. Irrigation occurred to maintain the soil at moist but not saturated conditions. Glasshouse bay conditions were 30/20° C. day/night; 18/6 hours light/dark; 75% humidity.
The test solutions were prepared by mixing the appropriate aliquots of the test substance (here, compound A-13 as EC050 Formulation Example 1) and adjuvant (0.2% Adsee as adjuvant) in de-ionised water to give the desired treatment concentration.
Application was as a foliar spray, made using a tracksprayer.
The test plants were grown on in the same glasshouse conditions, and watered to maintain moist conditions.
as §6, §5

IR-64 rice [6] = assay: Biological Example 2 (Test 109): damage to flooded transplanted rice; conditions: for IR-64 rice % herbicidal damage: EC050, into flood water, 14 days after application
Protocol: as §1, §2, §3, §4, §5

Koshihikari rice [7] = assay: Biological Example 4 (Test 110): transplanted (TPR) method, rice damage; conditions: for Transplanted Rice Koshihikari % herbicidal damage: 14 days after application
Protocol: as §1, with “variety Koshihikari,” for “variety IR-64,”, “bay 30/20°” for “bay (30/20°”, “ECHCG: 4” for “ECHCG: 2-3”, “leaves. The test solutions were prepared by mixing the appropriate aliquots of the test substance (here, compound A-13 as EC050 Formulation Example 1) in de-ionised water to give the desired treatment concentration.” for “leaves.”
as §3, §4, §6, §5

With `CC1(C)OC(C)(C)C(O)=C(c2cc(-c3ccc(Cl)cc3F)ccc2C2CC2)C1=O` [compound A-13, 4-(4′-Chloro-4-cyclopropyl-2′-fluorobiphenyl-3-yl)-2,2,6,6-tetramethylpyran-3,5-dione] the “ECHCG % herbicidal damage” value ([1]; 60 g/ha) was 68%, the “ECHCG % herbicidal damage” value ([1]; 120 g/ha) was 90% and the “ECHCG % herbicidal damage” value ([1]; 240 g/ha) was 98%. The “phytotoxicity (damage) to IR-64 transplanted flooded rice, in words” value (IR-64 rice [2]) was “very low phytotoxicity”, the “Koshihikari rice % herbicidal damage, Mean of 2 repetitions” value (Koshihikari rice [3]; 125 g/ha) was 13% and the “Koshihikari rice % herbicidal damage, Repetition A” value (Koshihikari rice [3]; 125 g/ha) was 10%. The “Koshihikari rice % herbicidal damage, Repetition B” value (Koshihikari rice [3]; 125 g/ha) was 15%, the “rice phytotoxicity (span of the 2 repetitions)” value (Koshihikari rice [3]; 125 g/ha) was 10-15% and the “Koshihikari rice % herbicidal damage, Mean of 2 repetitions” value (Koshihikari rice [3]; 250 g/ha) was 20%. For the same molecule, the “Koshihikari rice % herbicidal damage, Repetition A” value (Koshihikari rice [3]; 250 g/ha) was 20%, the “Koshihikari rice % herbicidal damage, Repetition B” value (Koshihikari rice [3]; 250 g/ha) was 20% and the “Koshihikari rice % herbicidal damage, Mean of 2 repetitions” value (Koshihikari rice [3]; 500 g/ha) was 25%. For the same molecule, the “Koshihikari rice % herbicidal damage, Repetition A” value (Koshihikari rice [3]; 500 g/ha) was 20%, the “Koshihikari rice % herbicidal damage, Repetition B” value (Koshihikari rice [3]; 500 g/ha) was 30% and the “rice phytotoxicity (span of the 2 repetitions)” value (Koshihikari rice [3]; 500 g/ha) was 20-30%. The “selectivity margin for use on rice (Koshihikari vs ECHCG)” value (Koshihikari rice [3]; Biological Example 3, 125 g/ha vs 500 g/ha) was “reasonable selectivity margin”, the “Transplanted ECHCG % herbicidal damage” value ([4]; 30 g/ha) was 0% and the “Transplanted ECHCG % herbicidal damage” value ([4]; 60 g/ha) was 20%. For the same molecule, the “Transplanted ECHCG % herbicidal damage” value ([4]; 125 g/ha) was 75%, the “Transplanted ECHCG % herbicidal damage” value ([4]; 500 g/ha) was 99% and the “DSR ECHCO 0.5lf % herbicidal damage” value ([5]; 8 g/ha) was 0%. For the same molecule, the “DSR ECHCO 3lf % herbicidal damage” value ([5]; 8 g/ha) was 85%, the “DSR weed control, in words” value ([5]; 60 and 125 g/ha, 2 growth stages, 0.5 leaf and 3 leaf, dry seeded rice method) was “controlled” and the “DSR ECHCO 0.5lf % herbicidal damage” value ([5]; 60 g/ha) was 90%. The “DSR ECHCO 3lf % herbicidal damage” value ([5]; 60 g/ha) was 100%, the “DSR ECHCO 0.5lf % herbicidal damage” value ([5]; 125 g/ha) was 90% and the “DSR ECHCO 3lf % herbicidal damage” value ([5]; 125 g/ha) was 100%. For the same molecule, the “DSR ECHCO 0.5lf % herbicidal damage” value ([5]; 500 g/ha) was 90%, the “DSR ECHCO 3lf % herbicidal damage” value ([5]; 500 g/ha) was 100% and the “IR-64 rice % herbicidal damage” value (IR-64 rice [6]; 120 g/ha) was 5%. For the same molecule, the “IR-64 rice % herbicidal damage” value (IR-64 rice [6]; 240 g/ha) was 18%, the “IR-64 rice % herbicidal damage” value (IR-64 rice [6]; 360 g/ha) was 5% and the “selectivity margin in rice (IR-64 rice vs ECHCG)” value (IR-64 rice [6]; Biological Example 2, 120 g/ha) was “good selectivity margin”. The “Transplanted Rice Koshihikari % herbicidal damage” value (Koshihikari rice [7]; 60 g/ha, EC050, into flood water) was 15%, the “Transplanted Rice Koshihikari % herbicidal damage” value (Koshihikari rice [7]; 125 g/ha, EC050 into flood water) was 20% and the “Transplanted Rice Koshihikari % herbicidal damage” value (Koshihikari rice [7]; 500 g/ha, EC050 into flood water) was 60%. For the same molecule, the “selectivity margin between rice and ECHCG” value (Koshihikari rice [7]; Biological Example 4, transplanted rice, 125 g/ha) was “certain selectivity margin”.
